Assay [1] in a line: Samples for fluorescence polarization affinity measurements were prepared by addition of serial dilutions of […] to each well containing antagonist and polarization probe in the buffer. Samples were read after 30-min incubation. Fluorescence polarization values were plotted as a function of the antagonist concentra. The following applies: pH 7.2. (In general: In fluorescence polarisation assays a small probe gives low polarisation when free and higher when bound to something large.)

Assay [2] concerns the target T1, Baculoviral IAP repeat-containing protein 3 [255-322] (Homo sapiens, UniProt Q13489).
T1 construct: 255-322
Nature of the assay: Fluorescence Polarization Affinity Measurements. The conditions noted are these: pH 7.2; 22 °C. As for the experimental part:
(§1) Samples for fluorescence polarization affinity measurements were prepared by addition of serial dilutions of […] to each well containing antagonist and polarization probe in the buffer. Samples were read after 30-min incubation. Fluorescence polarization values were plotted as a function of the antagonist concentration, and the IC50 values were obtained by fitting the data to a four-parameter equation using KaleidaGraph software. Ki values for the antagonists were determined from the IC50 values.

The target of assay [3] is T2, Baculoviral IAP repeat-containing protein 2 [269-336] (Homo sapiens, UniProt Q13490).
T2 construct: 269-336
Nature of the assay: Fluorescence Polarization Affinity Measurements. The conditions noted are these: pH 7.2; 22 °C. The procedure: as §1

Molecules are shown by their SMILES. Bounds are passed on as bounds.

T1 sequence (Q13489 255-322): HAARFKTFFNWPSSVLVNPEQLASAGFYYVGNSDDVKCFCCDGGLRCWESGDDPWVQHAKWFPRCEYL
T2 sequence (Q13490 269-336): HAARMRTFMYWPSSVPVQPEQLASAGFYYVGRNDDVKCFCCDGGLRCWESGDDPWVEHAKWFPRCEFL

As to `CN[C@@H](C)C(=O)N[C@H](C(=O)N1CCC[C@H]1C(=O)Nc1ccccc1-c1ncccn1)C1CCCCC1` [CS-2], the Ki (commonly a measure of affinity in units of concentration, obtained from inhibition or displacement) in assay [1] amounted to 5050 nM; in assay [2], 114 nM; in assay [3], 37 nM.
For `CN[C@H](C)C(=O)N[C@@H](C(=O)N1CCC[C@@H]1c1nc2c(-c3ccccc3Cl)nccc2s1)C1CCOCC1` [ent-PS-1], in that order: > 34000 nM, > 34000 nM and > 34000 nM.
Turning to `CN[C@@H](C)C(=O)N[C@H](C(=O)N1CC[C@H](C)[C@H]1C(=O)Nc1cc(C)nn1-c1ccccc1)C1CCCCC1` [CS-1], the Ki worked out at 2400 nM in assay [1], 52 nM in assay [2] and 10 nM in assay [3].
Take `CN[C@@H](C)C(=O)N[C@H](C(=O)N1CCC[C@H]1c1nc2c(-c3ccccc3Cl)nccc2s1)C1CCOCC1` [PS-1]: the inhibitory constant (Ki) in assay [1] worked out at 33 nM; in assay [2] it was 96 nM; in assay [3] it was 36 nM.

Values taken from BindingDB's records for doi:10.1021/cb900083m (Genentech, 2009).
